# Measured values as given in patent publication US20070026431A1, “Modulation of MAPK-mediated phosphorylation and/or FBXW8-mediated ubiquitinylation of cyclin D1 in modulation of cellular proliferation” (priority 2005, published 2007).
# “Also recorded” adds a separate entry of the source.
# Assays:
# Type in all cases: cell-based, human
# [1] = system: cyclin D1 protein (Thr286 phosphorylation); assay: Western blot of cyclin D1 and p-Thr286 cyclin D1 in HA-CD1 SW480 cells treated with kinase inhibitors; conditions: HA-WT CD1 SW480 cells; 24 hours of treatment
# Method: Immunoblot analysis was performed. […] Asterisks indicate endogenous cyclin D1 expression. Panel B: Western blot analysis with fractionated nuclear proteins. […] Cell-cycle distribution was shown as bar graphs. Nuclear proteins were fractionated at indicated time points. […] Levels of total and phosphorylated cyclin D1 were determined.
# (§1) Immunoblotting Analysis. […] SDS-PAGE was described previously (Tetsu and McCormick, 2003).
# To identify the kinase responsible for cyclin D1 Thr286 phosphorylation, small molecule inhibitors of GSK3β, CDK4, and MEK were used to determine whether they were able to alter the phosphorylation and stability of ectopically expressed WT cyclin D1 protein in cultured cells (FIG. 5, Panels C and D). Ectopically expressed WT cyclin D1 protein was used to assess the stability of cyclin D1 protein. The endogenous expression was not assessed because transcription of cyclin D1 is regulated by the Ras/MAPK signaling. Therefore, endogenous expression of cyclin D1 is unable to be detected following inhibition of MAPK activities through the MEK/MAPK inhibitors or serum starvation (Tetsu et al., 2003. Cancer Cell. 3, 233-45).
# GSK3α/β = assay: Phosphorylation-specific blot for GSK3α/β, SW480 cells; conditions: 24 hours of treatment
# [2] = system: cyclin D1 protein (Thr286 phosphorylation); assay: Western blot of total cyclin D1 and pThr286 in HCT 116 cells after U0126 or GSK3 inhibitor; conditions: cycling HCT 116; GSK3α/β inhibitor 24 hours
# Method: FIG. 11 illustrates that ERK/MAPK is identified as the major kinase that is responsible for the stability of cyclin D1 protein. Panels A-F: Pulse-chase analysis of cyclin D1 protein in HCT 116 cells after exposure to the MEK inhibitor U0126 (A-C) or the GSK3 inhibitor BIO (D-F). Exponentially growing HCT 116 cells were treated with either DMSO or 10 μM of U0126 (A-C) for 30 minutes, or DMSO or 5 μM of BIO (D-F) for 24 hours. Panels A and D: Cells were pulse-labeled with ^35S-methionine for 1 hour. Subsequently these cells were chased with cold methionine for the indicated times, and then lysed respectively. Cyclin D1 was immunoprecipitated and then analyzed with SDS-PAGE. Autoradiography was performed. Levels of metabolically labeled-cyclin D1 were estimated by quantitative scanning using the Quantity One (Bio-Rad) software and blotted on the graph to determine the half-life of cyclin D1. Panels B and E: Western blot analysis. The membrane was blotted with a cyclin D1 Thr286 phosphorylation specific (pThr286), total cyclin D1, a phosphorylation specific ERK, and total ERK antibodies (B), or a pThr286, cyclin D1, a GSKα/β phosphorylation specific, and GSK3β antibodies (E). Panels C and F: Cell cycle distributions were shown. Panel G: Western blot analysis following transfection of various forms of HA-tagged cyclin D1 expression vectors in both NIH 3T3 mouse fibroblast (left) and HCT 116 colon cancer (right) cells. In lane 5 and 10, cells were treated with 5 μM of BIO for further 24 hours following transfection of the ΔD CD1 mutant.
# as §1
# To determine the contribution of ERK/MAPK to the stability of cyclin D1 in cancer cells, MAPK activity was inhibited with the MEK inhibitor U0126 (Favata et al., 1998. J Bio Chem. 273, 18623-32; Davies et al., 2000. Biochem J. 351, 95-105). Exponentially growing HCT 116 colon cancer cells were treated with U0126 for 30 minutes (FIG. 11, Panels A-C).
# In contrast, no effect on phosphorylation status and stability of cyclin D1 protein through inhibition of GSK3α/β ([…], Panels D-F) were detected. […] Cycling HCT 116 colon cancer cells were treated with BIO for 24 hours (FIG. 11, Panels D-F). A phosphorylation specific antibody to GSK3α and β was used to measure their endogenous activities because phosphorylations of GSK3α at Tyr279 and GSK3β at Tyr216 are intramolecular autophosphorylation events in the cells. Thus, phosphorylation status reflects their kinase activities (Cole et al., 2004. Biochem J. 377, 249-55).
# [3] = system: HCT 116 colon cancer cells; assay: Flow-cytometric cell cycle analysis, HCT 116 cells; conditions: BIO 24 hours
# Method: Cell cycle analysis was carried out as described previously (Tetsu et al. (1999) Nature 398: 422-6; Tetsu et al. (2003) Cancer Cell 3: 233-45.
# [4] = system: cyclin D1 Thr286 phosphorylation; assay: Thr286 phosphorylation of transfected ΔD cyclin D1 after BIO, HCT 116 cells; conditions: 5 μM BIO 24 hours after transfection
# Text: FIG. 9 illustrates that MAPK directly binds to cyclin D1 through the MAPK docking site (D-domain) within cyclin D1 and phosphorylates it specifically at Thr286. Panel A: p42 ERK2-associated GST-cyclin D1 (CD1) in vitro kinase assays (upper panels). Purified ERK2 phosphorylates cyclin D1 in vitro. Immuno-blotting (IB) analyses stained with a GST antibody (lower panels) were provided as a reference to show loading conditions of various forms of GST-CD1 fusion proteins. (A) GST alone (lane 1), GST-human (h) CD1 amino acids (A.A.) from 165 to 295 (165-295, lane 2), GST-human (h) or mouse (m) CD1 A.A. from 255 to 295 (255-295, lane 3 and 4) were used. Panel B: Western blot analysis following transfection of various forms of HA-tagged cyclin D1 expression vectors in both NIH 3T3 mouse fibroblast (left) and HCT 116 colon cancer (right) cells. In lane 5 and 10, Cells were treated with 5 μM of a highly specific GSK3β inhibitor BIO for further 24 hours following transfcetion of the ΔD CD1 mutant.
# FIG. 11 illustrates that ERK/MAPK is identified as the major kinase that is responsible for the stability of cyclin D1 protein. […] Cyclin D1 was immunoprecipitated and then analyzed with SDS-PAGE. […] Levels of metabolically labeled-cyclin D1 were estimated by quantitative scanning using the Quantity One (Bio-Rad) software and blotted on the graph to determine the half-life of cyclin D1. […]
compound,measurement,setting,value
O=C1Nc2cc(Br)ccc2/C1=C1/Nc2ccccc2/C1=N\O [BIO],total cyclin D1 expression and its phosphorylated protein,[1],no significant difference
same,phosphorylated forms of GSK3α/β,GSK3α/β,disappeared
same,expression of total cyclin D1 and its phosphorylated protein,[2],no significant difference
same,cell cycle profile,[3],without affecting
same,phosphorylation status of cyclin D1 at Thr286 (ΔD mutant),[4],did not show any significant effect; also recorded: minimal effect
